Reference: patent US8846710B2, “Method of preferentially inducing the biosynthesis of interferon” (3M Innovative Properties Company, priority 2005, dated 2014)

Key:
[1] = system: tumor necrosis factor (α) (TNF-α); experiment: Cytokine induction in human cells: TNF-α secreted by PBMC into culture media (ORIGEN M-Series immunoassay); type: cell-based; design: key to Maximal Response (pg/mL) TNF / Maximal Response TNF: If any negative values result from background subtraction, the reading is reported as “*”, and is noted as not reliably detectable; details: for Minimum Effective Concentration TNF / Maximal Response TNF / minimal effective concentration: human PBMC; for Minimum Effective Concentration TNF: median where tested in more than one experiment; for Maximal Response TNF / Maximal Response (pg/mL) TNF: median; for Maximal Response (pg/mL) TNF: maximal response in dose response curve; for minimal effective concentration: lowest tested concentration inducing TNF-α over usually 40 pg/mL, median where more than one experiment, read-out: Minimum Effective Concentration (μM) TNF
In short: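 Secreted TNF-α (pg/mL) was quantified by ORIGEN M-Series immunoassay after 18 to 24 hours culture at 37° C of human PBMC (2×10^6 cells/mL final) with test compound (usually 30-0.014 μM, 3-fold series, DMSO ≤1%). Values were corrected for DMSO or experimental background and a reference-compound ratio, giving a minimum effective concentration.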

interferon (α) (IFN-α) = experiment: Cytokine induction in human cells: IFN-α secreted by PBMC into culture media (ELISA); type: cell-based; design: key to Maximal Response (pg/mL) IFN: If any negative values result from background subtraction, the reading is reported as “*”, and is noted as not reliably detectable; details: for Maximal Response IFN / Minimum Effective Concentration IFN / minimal effective concentration: human PBMC; for Maximal Response IFN / Minimum Effective Concentration IFN: median where tested in more than one experiment; for Maximal Response (pg/mL) IFN: maximal response in dose response curve, median; for minimal effective concentration: lowest tested concentration inducing IFN-α over usually 20 pg/mL, median where more than one experiment, read-out: Minimum Effective Concentration (μM) IFN
In short: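 IFN-α secreted by density-gradient-isolated PBMC (final 2×10^6 cells/mL) was quantified by ELISA after 18–24 h compound exposure at 37 °C, typically 30-0.014 μM in 3-fold steps with ≤1% DMSO. Readings corrected for background and reference-compound variability; lowest concentration above usually 20 pg/mL reported, plus maximal response (pg/mL).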

[2] = Table 11, * = TNF below experimental background of 40 pg/mL
[3] = Table 12, * = below the experimental background of 40 pg/mL
[4] = Table 8, background-subtracted, reference-adjusted
[5] = Table 10, * = below experimental background level

Compound	Minimum Effective Concentration TNF ([1]; Table 11) [µM]	Maximal Response TNF [1, 2]	Maximal Response IFN (interferon (α) (IFN-α); Table 11) [pg/mL]	Minimum Effective Concentration IFN (interferon (α) (IFN-α); Table 11) [µM]	further results
CS(=O)(=O)NCCCn1c(CCO)nc2c(N)nc3ccccc3c21 [Example 122]	>30	*	9651	3.33	
CC(C)(CNC(=O)c1ccccc1)Cn1c(CCO)nc2c(N)nc3ccccc3c21 [Example 124]	3.33	1446 pg/mL	3980	0.12	
CS(=O)(=O)CCCCCn1c(CCO)nc2c(N)nc3ccccc3c21 [Example 125]	>30	*	8361	0.37	
CCCCNC(=O)NCCCn1c(CCO)nc2c(N)nc3ccccc3c21 [Example 126]	>30	*	8361	1.11	
Nc1nc2ccccc2c2c1nc(CCO)n2CCCNC(=O)N1CCOCC1 [Example 128]	>30	*	75	30	
CC(C)(CN)Cn1c(CCO)nc2c(N)nc3ccccc3c21 [Example 129]	30	85 pg/mL	2702	0.37	
CC(C)(CNC(=O)Nc1ccccc1)Cn1c(CCO)nc2c(N)nc3ccccc3c21 [Example 130]	3.33	2001 pg/mL	8361	0.014	
CC(C)(CNS(C)(=O)=O)Cn1c(CCO)nc2c(N)nc3ccccc3c21 [Example 131]	>30	*	8361	0.37	
Nc1nc2ccccc2c2c1nc(CCO)n2CCCNC(=O)c1ccccc1 [Example 132]	>30	*	8361	0.37	
CN(CCOCCn1c(CCO)nc2c(N)nc3ccccc3c21)S(C)(=O)=O [Example 133]	>30	*	8361	0.37	
CN(CCOCCn1c(CCO)nc2c(N)nc3ccccc3c21)C(=O)c1ccccc1 [Example 134]	30	315 pg/mL	8361	3.33	
CN(CCOCCn1c(CCO)nc2c(N)nc3ccccc3c21)C(=O)C1CCCCC1 [Example 135]	30	146 pg/mL	2464	3.33	
CCNC(=O)NCCn1c(CCO)nc2c(N)nc3ccccc3c21 [Example 137]	30	73 pg/mL	801	30	
CC(C)CC(=O)NCCn1c(CCO)nc2c(N)nc3ccccc3c21 [Example 138]	>30	*	36	3.33	
CCCCCCCCCCCCCCCC(=O)NCCOCCn1c(CCO)nc2c(N)nc3ccccc3c21 [Example 140]	>30	*	673	1.11	
CC(C)C(=O)NCCCn1c(CCO)nc2c(N)nc3ccccc3c21 [Example 141, N-{3-[4-Amino-2-(2-hydroxyethyl)-1H-imidazo[4,5-c]quinolin-1-yl]propyl}-2-methylpropionamide]		243 pg/mL	14046		
CC(C)NC(=O)NC(C)(C)Cn1c(CO)nc2c(N)nc3ccccc3c21 [Example 142, 1-[2-(4-Amino-2-hydroxymethyl-1H-imidazo[4,5-c]quinolin-1-yl)-1,1-dimethylethyl]-3-(1-methylethyl)urea]		*	1554		
CC(C)(Cn1c(CO)nc2c(N)nc3cccnc3c21)NC(=O)C1CCCCC1 [Example 143, N-[2-(4-Amino-2-hydroxymethyl-1H-imidazo[4,5-c][1,5]naphthyridin-1-yl)-1,1-dimethylethyl]cyclohexanecarboxamide]					Maximal Response TNF [1, 3]: 798 pg/mL; Maximal Response IFN (interferon (α) (IFN-α); Table 12): 1467 pg/mL
CC(C)(Cn1c(CO)nc2c(N)nc3cccnc3c21)NS(C)(=O)=O [Example 144, N-[2-(4-Amino-2-hydroxymethyl-1H-imidazo[4,5-c][1,5]naphthyridin-1-yl)-1,1-dimethylethyl]methanesulfonamide]					Maximal Response TNF [1, 3]: 170 pg/mL; Maximal Response IFN (interferon (α) (IFN-α); Table 12): 1914 pg/mL
CS(=O)(=O)NCCCCn1c(CCO)nc2c(N)nc3cccnc3c21 [Example 145, N-{4-{4-Amino-2-(2-hydroxyethyl)-1H-imidazo[4,5-c][1,5]naphthyridin-1-yl]butyl}methanesulfonamide]					Maximal Response TNF [1, 3]: 7 pg/mL; Maximal Response IFN (interferon (α) (IFN-α); Table 12): 3008 pg/mL
CS(=O)(=O)NCCn1c(CO)nc2c(N)nc3cccnc3c21 [Example 146, N-[2-(4-Amino-2-hydroxymethyl-1H-imidazo[4,5-c][1,5]naphthyridin-1-yl)ethyl]methanesulfonamide]					Maximal Response TNF [1, 3]: *; Maximal Response IFN (interferon (α) (IFN-α); Table 12): 1520 pg/mL
CS(=O)(=O)NCCn1c(CCO)nc2c(N)nc3cccnc3c21 [Example 147, N-{2-[4-Amino-2-(2-hydroxyethyl)-1H-imidazo[4,5-c][1,5]naphthyridin-1-yl]ethyl}methanesulfonamide]					Maximal Response TNF [1, 3]: *; Maximal Response IFN (interferon (α) (IFN-α); Table 12): 49 pg/mL
CC(C)(O)Cn1c(CO)nc2c(N)nc3cccnc3c21 [Example 148, 1-(4-Amino-2-hydroxymethyl-1H-imidazo[4,5-c][1,5]naphthyridin-1-yl)-2-methylpropan-2-ol]					Maximal Response (pg/mL) TNF [1, 4]: 684 pg/mL; Maximal Response TNF [1, 3]: 1316 pg/mL; Maximal Response (pg/mL) IFN (interferon (α) (IFN-α); [4]): 3038 pg/mL; Maximal Response IFN (interferon (α) (IFN-α); Table 12): 2290 pg/mL
CC(C)(O)Cn1c(CCO)nc2c(N)nc3cccnc3c21 [Example 149, 1-[4-Amino-2-(2-hydroxyethyl)-1H-imidazo[4,5-c][1,5]naphthyridin-1-yl]-2-methylpropan-2-ol]					Maximal Response (pg/mL) TNF [1, 4]: 342 pg/mL; Maximal Response TNF [1, 3]: 331 pg/mL; Maximal Response (pg/mL) IFN (interferon (α) (IFN-α); [4]): 1849 pg/mL; Maximal Response IFN (interferon (α) (IFN-α); Table 12): 2063 pg/mL
Nc1nc2cc(-c3ccccc3)ccc2c2c1nc(CCO)n2CCCN1CCCC1=O [Example 156]					minimal effective concentration ([1]; Table 10): >30 µM; Maximal Response (pg/mL) TNF [1, 5]: *; minimal effective concentration (interferon (α) (IFN-α); Table 10): >30 µM; Maximal Response (pg/mL) IFN (interferon (α) (IFN-α); [5]): *
CC(C)(O)Cn1c(CCO)nc2c(N)nc3cc(-c4ccccc4)ccc3c21 [Example 157]					Maximal Response (pg/mL) TNF [1, 5]: 67 pg/mL; minimal effective concentration (interferon (α) (IFN-α); Table 10): 0.37 µM
CC(C)Cn1c(CCO)nc2c(N)nc3cc(-c4cccnc4)ccc3c21 [Example 158]					Maximal Response (pg/mL) TNF [1, 5]: 42 pg/mL; minimal effective concentration (interferon (α) (IFN-α); Table 10): 0.37 µM
CC(C)Cn1c(CCO)nc2c(N)nc3cc(-c4cncc(CO)c4)ccc3c21 [Example 159]					minimal effective concentration ([1]; Table 10): 10 µM; minimal effective concentration (interferon (α) (IFN-α); Table 10): 0.12 µM
Nc1nc2cc(-c3cccnc3)ccc2c2c1nc(CCO)n2CCCN1CCCC1=O [Example 160]					minimal effective concentration ([1]; Table 10): >30 µM; Maximal Response (pg/mL) TNF [1, 5]: *; minimal effective concentration (interferon (α) (IFN-α); Table 10): 30 µM; Maximal Response (pg/mL) IFN (interferon (α) (IFN-α); [5]): 109 pg/mL
